Experimental data published in patent US11325980B2, “Combination therapy using a LIV1-ADC and a chemotherapeutic” (SEATTLE GENETICS, INC., priority 2016, dated 2022).

Tested on: MCF-7 cells
Assay: In vivo tumor growth inhibition (TGI), MCF-7 cells implanted subcutaneously in NSG mice
Parameters: species or system NOD Scid Gamma (NSG) mice
Settings: for ranking of combinatorial benefit in vivo: combined with SGN-LIV1A, doses of Table 2, nab-paclitaxel 10 mg/kg; for Expected combination TGI: expected additive; for Combinatorial benefit: observed minus expected combination TGI; for TGI: single agent
Method: NOD Scid Gamma (NSG) mice were obtained from Jackson Laboratory and implanted with 17-β-estradiol pellet (Innovative Research of America; Sarasota, Fla.) one day prior to cell implant. Five million MCF-7 cells were implanted subcutaneously with Matrigel (BD Biosciences; Franklin Lakes, N.J.) and tumor volume was determined by a digital caliper twice a week, using the formula: volume=½×length width^2.
Mice received treatments when the average tumor volume reached 100 mm^3. The treatment regimen for each agent was: doxorubicin, 1 mg/kg q4dx3 intravenous (IV); SGN-LIV1, 1 mg/kg q4dx4 intraperitoneal (IP); […]; carboplatin 10 mg/kg q7dx3 IP; cyclophosphamide, 40 mg/kg q7dx3 IV; gemcitabine 20 mg/kg q7dx2 IP; and paclitaxel 10 mg/kg q3dx5 IP. Combination groups received the first dose of SGN-LIV1A and combination drug on the same day. n=6 for each group. The effects of each drug and their combination on tumor growth were plotted in FIGS. 6-8.
To determine the combined benefit in vivo, tumor growth inhibition (TGI) was compared using the area under the curve between untreated, single agent groups, and combined groups on the date the untreated animals were euthanized (Table 2). […] Thus, the expected additive TGI for combination is […].

[1] = named drug 10 mg/kg combined with 1 mg/kg SGN-LIV1A
[2] = named drug 40 mg/kg combined with 1 mg/kg SGN-LIV1A
[3] = named drug 1 mg/kg combined with 1 mg/kg SGN-LIV1A
[4] = dose 1 mg/kg, AUC vs untreated on the date untreated animals were euthanized
[5] = named drug 20 mg/kg combined with 1 mg/kg SGN-LIV1A

N.N.O=C([O-])C1(C(=O)[O-])CCC1.[Pt+2] [carboplatin]
ranking of combinatorial benefit in vivo: highest combinatorial benefit | Observed combination TGI [1]: 60% | Expected combination TGI [1]: 52% | Combinatorial benefit (named drug 10 mg/kg with 1 mg/kg SGN-LIV1A): 8% | TGI (dose 10 mg/kg, AUC vs untreated): 21%

O=P1(N(CCCl)CCCl)NCCCO1 (centres unmarked) [cyclophosphamide]
Observed combination TGI [2]: 39% | Expected combination TGI [2]: 45% | Combinatorial benefit (named drug 40 mg/kg with 1 mg/kg SGN-LIV1A): −6% | TGI (dose 40 mg/kg, AUC vs untreated): 10%

COc1cccc2c1C(=O)c1c(O)c3c(c(O)c1C2=O)C[C@@](O)(C(=O)CO)C[C@@H]3O[C@H]1C[C@H](N)[C@H](O)[C@H](C)O1 [doxorubicin]
ranking of combinatorial benefit in vivo: highest combinatorial benefit | Observed combination TGI [3]: 75% | Expected combination TGI [3]: 55% | Combinatorial benefit (named drug 1 mg/kg with 1 mg/kg SGN-LIV1A): 20% | TGI [4]: 26%

Nc1ccn([C@@H]2O[C@H](CO)[C@@H](O)C2(F)F)c(=O)n1 [gemcitabine]
Observed combination TGI [5]: 54% | Expected combination TGI [5]: 51% | combined effect in vivo (named drug 20 mg/kg when combined with SGN-LIV1A): nearly additive | Combinatorial benefit (named drug 20 mg/kg with 1 mg/kg SGN-LIV1A): 3% | TGI (dose 20 mg/kg, AUC vs untreated): 20%

B1: SGN-LIV1A: LIV-1-directed antibody-drug conjugate: humanized antibody hLIV22, valine-citrulline linker, monomethyl auristatin E; average of 4 MMAE per antibody (conjugate, chains of the INN, looked up)
VH: QVQLVQSGAEVKKPGASVKVSCKASGLTIEDYYMHWVRQAPGQGLEWMGWIDPENGDTEYGPKFQGRVTMTRDTSINTAYMELSRLRSDDTAVYYCAVHNAHYGTWFAYWGQGTLVTVSS
VL: DVVMTQSPLSLPVTLGQPASISCRSSQSLLHSSGNTYLEWYQQRPGQSPRPLIYKISTRFSGVPDRFSGSGSGTDFTLKISRVEAEDVGVYYCFQGSHVPYTFGGGTKVEIK
modifications: vedotin (vc-MMAE)
notes: LIV-1-directed antibody-drug conjugate: humanized antibody hLIV22, valine-citrulline linker, monomethyl auristatin E; average of 4 MMAE per antibody
TGI [4]: 39%
